{"source": "patent US20030100109A1", "about": "“Methods and compositions for in vitro germination and propagation of polygonatum cirrhifolium royle” (priority 2001, published 2003)", "system": "Polygonatum cirrhifolium Royle seeds with emerged hypocotyl", "assay": "Synchronization of germination: release of epicotyl, coleoptile and radicle from seeds with emerged hypocotyl", "format": "in vivo", "settings": "modified MS culture medium, 20° C., 16 hr photoperiod", "method": "Germination was evaluated every three days by examining seeds for hypocotyl emergence. […] Seeds with emerged hypocotyl were transferred under aseptic conditions to the above defined basal culture medium containing gibberellic acid at 5, 25, 50 and 100 mg/L. Transferred plants were incubated in an environment having 8-16-hr days under about 2000 lux of light and about 8-16-hr nights in total darkness at a constant temperature of 20° C. ([…]) and at 50-60% RH. Illumination was provided by 40-watt cool, white fluorescent tubes. Germination synchronization as indicated by differentiated epicotyl with emergent coleoptile and radicle was recorded on daily basis. The consequent step of synchronization of germination is presented in table 3 in which epicotyl with emergent coleoptile and radicle is manifest under 8-16 hr photoperiod (light intensity 2000-3500 lux) at an incubation temperature of 20° C. (RH 50-60%). In this experiment seeds with emerged hypocotyl were transferred to the culture to modified MS basal culture medium containing of 2.2 g/L NH4NO3, 2.0 g/L KNO3, 0.44 g/l CaCl2.2H2P, 0.37 g/L MgSO4.7H20, 0.17 g/L KH2PO4, 37.25 mg/L Na2 EDTA, 27.8 mg/L FeSO4.7H20, 0.83 mg/L KI, 6.2 mg/L H3BO3, 22.3 mg/L MnSO4.4H20, 8.6 mg/L ZnSO4.7H20, 0.25 mg/L Na2MoO4.2H20, 0.025 mg/L CuSO4.5H2O, 0.025 mg/L CoCl2.6H20, 250 mg/L myo-inositol, 0.5 mg/L nicotinic acid, 0.5 mg/L pyridoxine HCl, 3 mg/L thiamine HCl, 2 mg/L glycine, 30 g/L sucrose and 7.5 g/L agar and supplemented with 4 concentrations of GA3 viz. […], 25, 50 and 100 mg/L. Cultures were incubated at 20° C. under 16 hr photoperiod in a growth chamber. there were four treatments in total and each treatment consisted of 15 replicates with 4 seeds with emerged hypocotyl in each replicate. The effect of various treatments on the release of epicotyl, coleoptile radicle and days to release/synchronization is described in table 3.100 mg/L of GA3 results in 100% synchronization after 11 days of culture.", "note": "“And” between values parts separate entries of the source, which are not always exact repeats. Identical values can stand only once."}
{"smiles": "C=C1C[C@]23C[C@@]1(O)CC[C@H]2[C@@]12C=C[C@H](O)[C@@](C)(C(=O)O1)[C@H]2[C@@H]3C(=O)O", "note": "[GA3, gibberellic acid]", "values": [{"measurement": "Days to release epicotyl, coleoptile & radicle", "setting": "GA3 10 mg/L", "result": 21, "unit": "days"}, {"measurement": "Percent seeds with epicotyl, coleoptile & radicle", "setting": "GA3 10 mg/L", "result": "23.71 ± 2.00", "unit": "%"}, {"measurement": "Days to release epicotyl, coleoptile & radicle", "setting": "GA3 25 mg/L", "result": 18, "unit": "days"}, {"measurement": "Percent seeds with epicotyl, coleoptile & radicle", "setting": "GA3 25 mg/L", "result": "78.23 ± 3.11", "unit": "%"}, {"measurement": "Days to release epicotyl, coleoptile & radicle", "setting": "GA3 50 mg/L", "result": 14, "unit": "days"}, {"measurement": "Percent seeds with epicotyl, coleoptile & radicle", "setting": "GA3 50 mg/L", "result": "100.00 ± 0.00", "unit": "%"}, {"measurement": "Days to release epicotyl, coleoptile & radicle", "setting": "GA3 100 mg/L", "result": 11, "unit": "days"}, {"measurement": "Percent seeds with epicotyl, coleoptile & radicle", "setting": "GA3 100 mg/L", "result": "100% and 100.00 ± 0.00%"}]}
